{"source": "patent US8815849B2", "about": "“Hetero-bicyclic derivatives as HCV inhibitors” (Janssen R&D Ireland, priority 2010, dated 2014)", "key": {"[1]": {"system": "HCV replicon (Huh-Luc cells, NS3-NS5B regions of HCV type 1b)", "test": "HCV replicon assay (Huh-7 luc/neo, luciferase readout)", "format": "cell-based", "conditions": "Hepatitis C virus, Huh-7, 72 h, Huh-Luc replicon cells, three days incubation, luciferase activity; average if tested more than once; read-out: HCV-REP-HUH7LUC_EC50", "source_text": "The in vitro antiviral activity against HCV of the compounds of formula I can be tested in a cellular HCV replicon system based on Lohmann et al. (1999) Science 285:110-113, with the further modifications described by Krieger et al. (2001) Journal of Virology 75: 4614-4624 (incorporated herein by reference), which is further exemplified in the examples section. This model, while not a complete infection model for HCV, is widely accepted as the most robust and efficient model of autonomous HCV RNA replication currently available. It will be appreciated that it is important to distinguish between compounds that specifically interfere with HCV functions from those that exert cytotoxic or cytostatic effects in the HCV replicon model, and as a consequence cause a decrease in HCV RNA or linked reporter enzyme concentration. Assays are known in the field for the evaluation of cellular cytotoxicity based for example on the activity of mitochondrial enzymes using fluorogenic redox dyes such as resazurin. Furthermore, cellular counter screens exist for the evaluation of non-selective inhibition of linked reporter gene activity, such as firefly luciferase. Appropriate cell types can be equipped by stable transfection with a luciferase reporter gene whose expression is dependent on a constitutively active gene promoter, and such cells can be used as a counter-screen to eliminate non-selective inhibitors.\nThe compounds of formula (I) were examined for inhibitory activity in the HCV replicon. This cellular assay is based on a bicistronic expression construct, as described by Lohmann et al. (1999) Science vol. 285 pp. 110-113 with modifications described by Krieger et al. (2001) Journal of Virology 75: 4614-4624, in a multi-target screening strategy.\nThe assay utilized the stably transfected cell line Huh-7 luc/neo (hereafter referred to as Huh-Luc). This cell line harbors an RNA encoding a bicistronic expression construct comprising the wild type NS3-NS5B regions of HCV type 1b translated from an\nInternal Ribosome Entry Site (IRES) from encephalomyocarditis virus (EMCV), preceded by a reporter portion (FfL-luciferase), and a selectable marker portion (neo^R, neomycine phosphotransferase). The construct is flanked by 5′ and 3′ NTRs (non-translated regions) from HCV type 1b. Continued culture of the replicon cells in the presence of G418 (neo^R) is dependent on the replication of the HCV RNA. The stably transfected replicon cells that express HCV RNA, which replicates autonomously and to high levels, encoding inter alia luciferase, were used for screening the antiviral compounds.\nThe replicon cells were plated in 384 well plates in the presence of the test and control compounds which were added in various concentrations. Following an incubation of three days, HCV replication was measured by assaying luciferase activity (using standard luciferase assay substrates and reagents and a Perkin Elmer ViewLux™ ultraHTS microplate imager). Replicon cells in the control cultures have high luciferase expression in the absence of any inhibitor. The inhibitory activity of the compound on luciferase activity was monitored on the Huh-Luc cells, enabling a dose-response curve for each test compound. EC50 values were then calculated, which represent the amount of compound required to decrease the level of detected luciferase activity by 50%, or more specifically, to reduce the ability of the genetically linked HCV replicon RNA to replicate.\nWhere a compound of formula (I) was tested more than once in the replicon assay, the average of all test results is given in this Table 1."}, "[2]": {"system": "LLC-MDR1 monolayers", "format": "in vitro ADME", "conditions": "pig, LLC-PK1, 120 min", "method": "Assay Description for the Measurement of Transepithelial Transport of Test Compounds Through LLC-MDR1 Monolayers\nThe integrity of the cellular monolayer was assessed in each incubation well through the inclusion of the fluorescent, low permeability marker compound, Fluorescein.\nIn detail, LLC-MDR1 cells (LLC-PK1 cells stably transduced with MDR1 in a trans-well system) were seeded on 24-well cell culture inserts (Millicell®-PCF, 0.4 μm, 13 mm Ø, 0.7 cm^2) at 400 000 cells/cm^2. Cell culture medium consists of Medium 199 supplemented with 10% Fetal Bovine Serum (FBS) and 100 U/mL Penicillin/streptomycin and was replaced the day after seeding and the day before the experiment. The transport experiment was performed 5 days after seeding. On the day of the experiment, solutions of the test compounds were applied to the apical side of the monolayers to assess transport in the AtoB direction,. The medium used in the assay was (OPTI-MEM (1×) (GIBCO) with 1 w/v % Bovine Serum Albumin. Inserts were incubated at 37° C. in a humidified incubator containing 5% CO2. Samples from the acceptor and donor compartments were collected after an incubation time of 120 min, to assess the permeability and to allow estimation of the test compound recovery during the experiment, respectively. Transport experiments were performed in triplicate. Absolute test compound concentrations were measured using LC-MS/MS and quantified via a calibration curve."}}}
{"smiles": "COC(=O)N[C@H](C(=O)N1CCC[C@H]1c1ncc(-c2ccc3cc(-c4ccc5c(c4)NC([C@@H]4CCCN4C(=O)[C@H](NC(=O)OC)c4ccccc4)=NS5(=O)=O)ccc3c2)[nH]1)C(C)C", "note": "[Compound 87]", "values": [{"measurement": "EC50", "setting": "[1]", "value": 8, "unit": "pM"}, {"measurement": "A->B permeability (Papp × 10^−6 cm/sec) in the presence the P-gp inhibitor GF120918", "setting": "[2]", "value": "1.0 10^−6 cm/sec"}]}
